Values of other authors as cited in publication PMC8875686, “Oral Formulation Based on Irbesartan Nanocrystals Improve Drug Solubility, Absorbability, and Efficacy” (Pharmaceutics, 2022).
Values after ≈ are worked out from the molar mass of the structure shown.

Tests used:
[1] = oral administration
[2] = room temperature

Structure (SMILES)	average absolute bioavailability (BA) [1]	time of Cmax (peak plasma concentrations) [1]	solubility [2]
CCCCC1=NC2(CCCC2)C(=O)N1Cc1ccc(-c2ccccc2-c2nnn[nH]2)cc1 [IRB, Irbesartan]	60–80%	1.5 to 2 h	
CCCCC1=NC2(CCCC2)C(=O)N1Cc1ccc(-c2ccccc2-c2nnn[nH]2)cc1 [form B]			~0.6 µg/mL (≈ 1.4 µM)
CCCCC1=NC2(CCCC2)C(=O)N1Cc1ccc(-c2ccccc2-c2nnn[nH]2)cc1 [form A]			approximately 0.011 mg/mL
